The record followed here is patent publication US10391070B2, “Compositions and methods for treating neurological diseases or injury” (MUSC FOUNDATION FOR RESEARCH DEVELOPMENT, priority 2012, dated 2019).

What all share (type): cell-based, mouse
Test [1] concerns HT22 cells. As to the kind of experiment: Glutathione determination in glutamate-treated cells. The following applies: HT22, 10 mM glutamate 8 hrs, 500 nM. As for the experimental part: The content of total glutathione (reduced and oxidized) in the supernatant of cell homogenate was measured using the glutathione assay kit (Cayman Chemical) in microtiter plate assay, which utilizes an enzymatic recycling method, using glutathione reductase, for the quantification of glutathione. The sulfhydryl group of glutathione reacted with 5,5′-dithiobis-2-nitrobenzoic acid (DTNB) and produced a yellow-colored 5-thio-2-nitrobenzoic acid (TNB), which was measured at 405 nm.

The test system of test [2] is HT22 cells. Kind of test: Intracellular ROS measurement (Rho123, CM-H2DCFDA). To be noted: HT22, 10 mM glutamate 8 hrs, 250 nM. How it is done:
Intracellular generation of ROS was evaluated by spectrofluorometry using the membrane-permeable compound dihydrorhodamine 123 (Rho123; Invitrogen), and images were collected using 5-(and -6)-chloromethyl-2′,7′-dichlorodihydrofluorescein diacetate, acetyl ester (CM-H2DCFDA; Invitrogen). Briefly, HT-22 cells were seeded onto black walled 96-well plates at 5.0×10^3 cells per well in 75 μL of medium and maintained at 37° C. in 5% CO2 overnight prior to the initiation of experimental treatments. Cells were subsequently treated with 25 μL of medium containing glutamate (monosodium glutamate, Sigma, 1 M stock concentration in media, to achieve a final concentration of 10 mM) plus inhibitors (stock in DMSO) and maintained at 37° C. in 5% CO2. After 8 hrs, Rho123 (5 μM), CM-H2DCFDA (1 μM), or MitoSox (5 μM) and Mitotracker DR (10 nM) was added to achieve the indicated final concentrations. Cells were allowed to incubate for 20 minutes and then washed twice with Hanks Balanced Salt Solution (HBSS; Hyclone; CaCl2 1.26 mM, MgCl2-6H2O 0.493 mM, MgSO4-7H2O 0.407 mM, KCl 5.33 mM, KH2PO4 0.441 mM, NaHCO3 4.17 mM, NaCl 137.93 mM, Na2HPO4 0.338 mM, D-Glucose 5.56 mM), with a final addition of 100 μL of HBSS in which the cells were visualized. Fluorescence of the oxidized Rho123 was measured using a Fluoroskan Ascent spectrofluorometer (Labsystems). Peak excitation and emission wavelengths were 500 and 536, respectively. For fluorescent imaging of the oxidation product of CM-H2DCFDA, cells were immediately visualized using an InCell 2000 Analyzer (GE) with a 40× objective and a FITC excitation/emission filter set. Image processing was performed using ImageJ, and for all images, the microscope and image processing settings, such as levels, brightness, contrast, and exposure time were held constant across all treatment conditions.

Test [3] has as its system HT22 cells. As to the kind of experiment: Mitochondrial morphology and superoxide generation (MitoSOX, Mitotracker). To be noted: HT22, high extracellular glutamate, co-treatment. How it is done: In order to evaluate the source of the ROS generation, fluorescence microscopy was used to image HT22 using the fluorogenic dyes Mitotracker Deep Red (DR) and MitoSOX Red (Invitrogen). Mitotracker DR is a cell permeant dye that accumulates in active, polarized mitochondria. […] Briefly, HT22 cells were seeded onto black walled 96-well plates at 5.0×10^3 cells per well in 75 μL of medium and maintained at 37° C. in 5% CO2 overnight prior to the initiation of experimental treatments. Cells were subsequently treated with 25 μL of medium containing glutamate (monosodium glutamate, Sigma-Aldrich, 1 M stock concentration in media, to achieve a final concentration of 10 mM) plus inhibitors (stock in DMSO) and maintained at 37° C. in 5% CO2. After 8 hrs, MitoSOX Red (5 μM) and Mitotracker DR (10 nM) were added to achieve the indicated final concentrations. Cells were allowed to incubate for 20 minutes and then washed twice with Hanks Balanced Salt Solution (HBSS; Hyclone; CaCl2 1.26 mM, MgCl2-6H2O 0.493 mM, MgSO4-7H2O 0.407 mM, KCl 5.33 mM, KH2PO4 0.441 mM, NaHCO3 4.17 mM, NaCl 137.93 mM, Na2HPO4 0.338 mM, D-Glucose 5.56 mM), with a final addition of 100 μL of HBSS in which the cells were visualized. Cells were immediately visualized using an InCell 2000 Analyzer (GE) with a 40× objective and a Cy5/Cy5 excitation/emission filter set for Mitotracker DR and a YFP/Cy3 filter set for MitoSOX Red. Image processing was performed using ImageJ, and for all images, the microscope and image processing settings, such as levels, brightness, contrast, and exposure time were held constant across all treatment conditions.

For the next test, the system named is Drp1. Kind of test: Western blot, phosphorylation of Drp1 (Ser637). The following applies: HT22, 10 mM glutamate 16 hrs. As for the experimental part:
(§1) HT-22 cells were cultured and treated as described above for the qRT-PCR experiments. After 16 hrs, the media was collected and the cells harvested by trypsanization. After centrifugation, pelleted cells were washed with cold HBSS Ca^2+/Mg^2+ Free, followed by lysis with a low salt lysis buffer (50 mM Tris-HCl, pH 7.4, 150 mM NaCl, 10% glycerol, 0.5 Triton X-100, 1× protease and phosphatase inhibitor cocktail) for 30 min, followed by a 15-s sonication pulse at 30 W. For Western blot analysis, the cell lysates were denatured with LDS loading buffer (Invitrogen) and run on Nupage 4-12% Tris-glysine gradient gels (Invitrogen) after centrifugation. Phosphorylated Drp1 (Ser637) (Cell Signaling) and total Drp1 (C5) (Santa Cruz), PGAM5 (K16) (Santa Cruz Biotechnology), Actin (Sigma-Aldritch) and alpha-Tubulin (Santa Cruz Biotechnology) were assessed with primary antibody, followed by rabbit, mouse, or goat IgG-HRP secondary antibody. The blot was developed using Pierce Thermo Dura-ECL reagent (Thermo-Fisher) and visualized using an ImageQuant LAS 4000 (GE). Digital images of membranes were quantified by computer-assisted densitometry using Image J 1.42q (National Institutes of Health, MD).
(Immunoblotting shows a protein as a band on a membrane.)

A further test has as its system PGAM5. Kind of test: Western blot, PGAM5 cleavage. The following applies: HT22, glutamate. As for the experimental part:
as §1

With `O=C1C=C(NCc2ccccc2)C(=O)c2ccccc21` [Compound 2j, 2-(benzylamino)naphthalene-1,4-dione], the “depletion of total cellular GSH” value with HT22 cells [1] is on record as “does not prevent GSH”. In the test with HT22 cells [2], the “ROS accumulation (Rho123)” value is reported as “prevent the accumulation of ROS”. The “mitochondrial superoxide generation and mitochondrial fragmentation” value with HT22 cells [3] is reported as “prevented these events”. For the same compound, the “phosphorylation of Drp1 at Ser 637” value with Drp1 (250 and 125 nM) is recorded as “the phosphorylation state is maintained”. Further, the “increase in lower band (cleavage product) of PGAM5” value (“increase in lower band” below) in the test on PGAM5 (125 nM) is listed as “completely attenuated”.
As to `O=C1C=C(NCc2cccc(Cl)c2)C(=O)c2ccccc21` [Compound 2q, 2-((3-chlorobenzyl)amino)naphthalene-1,4-dione], in the test on HT22 cells [1], the “depletion of total cellular GSH” value is “does not prevent GSH”. The “ROS accumulation (Rho123)” value in the test with HT22 cells [2] is listed as “prevent the accumulation of ROS”. The “mitochondrial superoxide generation and mitochondrial fragmentation” value with HT22 cells [3] is “prevented these events”. Moreover, the “phosphorylation of Drp1 at Ser 637” value with Drp1 (250 and 125 nM) was “the phosphorylation state is maintained”. Besides, the “increase in lower band” value in the test on PGAM5 (125 nM) is given as “completely attenuated”.
Regarding menaquinones [VK2, reference compound], the “depletion of total cellular GSH” value in the test with HT22 cells [1] is listed as “does not prevent GSH”. The “ROS accumulation (Rho123)” value with HT22 cells [2] is recorded as “less effective”. In addition, the “mitochondrial superoxide generation and mitochondrial fragmentation” value with HT22 cells [3] is “prevented these events”. Also, the entries for the “phosphorylation of Drp1 at Ser 637” value in the test on Drp1 (250 nM) and with Drp1 (500 nM) were “less effective” and “the phosphorylation state is maintained”, respectively. For the same compound, the “increase in lower band” value in the test with PGAM5 (500 nM) is reported as “completely attenuated”.
